Patent publication US6719958B1, “Polychelants, their complexes with metal ions, their preparation and their uses” (Dibra S.p.A., priority 1996, dated 2004)

B1: Example 9: Conjugate of gadolinium complex compound (IVa) with horse heart myoglobin; Gd content 27.9 mol/mol protein (conjugate, UniProt P68082 2-154, looked up)
Myoglobin: GLSDGEWQQVLNVWGKVEADIAGHGQEVLIRLFTGHPETLEKFDKFKHLKTEAEMKASEDLKKHGTVVLTALGGILKKKGHHEAELKPLAQSHATKHKIPIKYLEFISDAIIHVLHSKHPGDFGADAQGAMTKALELFRNDIAAKYKELGFQG
modifications: gadolinium complex IVa conjugate
notes: Conjugate of gadolinium complex compound (IVa) with horse heart myoglobin; Gd content 27.9 mol/mol protein

Key:
[1] = according to the literature (Lauffer R. B. (1990) Magn. Reson. Quart. 2, 65-84); cited from earlier work
[2] = Relaxivity measurement (Bruker Minispec 120, 0.5 T, 39° C.); format: physicochemical; settings: on a per gadolinium basis
Experimental: For some Gd-containing products the relaxivity r1 was measured using a Bruker Minispec 120, at 0.5 T and 39° C.

| Molecule | Relaxivity r1 ([2]; 0.5 T and 39° C.) [s⁻¹ mM⁻¹] | other results |
| --- | --- | --- |
| O=C([O-])CN1CCN(CC(=O)[O-])CCN(CC(=O)O)CCN(CC(=O)[O-])CC1.[Gd+3] [Gd-DOTA] |  | r1 value [1]: 3.4 mM⁻¹ s⁻¹ |
| Gadolinium Complex of N^□,N^ε,N^ε(a)-Tris-[4-aza-5-oxo-6-(1,4,7,10-tetraazacyclododecol-4,7,10-triacetate)hexyl]-L-lysine [Example 4] | 5.25 |  |
| O=C(O)CN1CCN(CC(=O)O)CCN(CC(=O)NCCCN(CCCC[C@H](NC(=O)OCc2ccccc2)C(=O)O)CCCNC(=O)CN2CCN(CC(=O)O)CCN(CC(=O)O)CCN(CC(=O)O)CC2)CCN(CC(=O)O)CC1 [Example 6, N^α-Carbobenzyloxy-N^ε,N^ε-bis-[4-aza-5-oxo-6-(1,4,7,10-tetraazacyclododecyl-4,7,10-triacetate)hexyl]-L-lysine] |  | Relaxivity r1 [2]: 8.35 s⁻¹ mM⁻¹ |
| Gadolinium Complex of N^□,N^□,N^ε,N^ε-Tetrakis-[4-aza-5-oxo-6-(1,4,7,10-tetraazacyclododecyl-4,7,10-triacetate)hexyl]-L-lysine [Example 5] | 8.35 |  |
| B1 | 19 |  |
